Results: the kinase profiling compilation of Christmann-Franck et al. (2016)

Key:
Experiment in all cases: KINOMEscan competition binding
Conditions in all cases: compound 10.0 µM
ABL2 (human) = ABL2 (human) (UniProt P42684)
ACVRL1 (human) = ACVRL1 (human) (UniProt P37023)
AKT1 (human) = AKT1 (human) (UniProt P31749)
AKT3 (human) = AKT3 (human) (UniProt Q9Y243)
BMPR1A (human) = BMPR1A (human) (UniProt P36894)
CAMK2B (human) = CAMK2B (human) (UniProt Q13554)
CDK7 (human) = CDK7 (human) (UniProt P50613)
CHEK2 (human) = CHEK2 (human) (UniProt O96017)
CLK4 (human) = CLK4 (human) (UniProt Q9HAZ1)
DYRK1B (human) = DYRK1B (human) (UniProt Q9Y463)
Chain of DYRK1B (human) (Q9Y463 whole entry, looked up): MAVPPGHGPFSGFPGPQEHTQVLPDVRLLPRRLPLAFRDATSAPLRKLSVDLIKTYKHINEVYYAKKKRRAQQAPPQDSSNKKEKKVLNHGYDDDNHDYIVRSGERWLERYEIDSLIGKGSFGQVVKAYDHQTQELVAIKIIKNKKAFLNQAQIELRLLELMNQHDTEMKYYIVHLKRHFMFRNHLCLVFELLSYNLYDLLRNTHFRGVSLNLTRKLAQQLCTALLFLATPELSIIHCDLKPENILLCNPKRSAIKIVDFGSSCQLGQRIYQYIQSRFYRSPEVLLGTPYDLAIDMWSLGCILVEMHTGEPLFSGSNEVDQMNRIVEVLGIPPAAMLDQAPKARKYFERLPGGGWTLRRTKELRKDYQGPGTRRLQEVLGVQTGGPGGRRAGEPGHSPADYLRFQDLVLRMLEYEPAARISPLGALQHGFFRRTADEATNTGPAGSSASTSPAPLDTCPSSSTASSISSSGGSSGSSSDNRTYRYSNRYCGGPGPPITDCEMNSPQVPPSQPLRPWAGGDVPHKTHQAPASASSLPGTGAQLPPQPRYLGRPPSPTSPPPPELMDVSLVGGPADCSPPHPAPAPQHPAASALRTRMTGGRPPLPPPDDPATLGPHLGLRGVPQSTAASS

EPHA4 (human) = EPHA4 (human) (UniProt P54764)
FGFR1 (human) = FGFR1 (human) (UniProt P11362)
FGFR2 (human) = FGFR2 (human) (UniProt P21802)
FGFR3 (human) = FGFR3 (human) (UniProt P22607)
Chain of FGFR3 (human) (P22607 whole entry, looked up): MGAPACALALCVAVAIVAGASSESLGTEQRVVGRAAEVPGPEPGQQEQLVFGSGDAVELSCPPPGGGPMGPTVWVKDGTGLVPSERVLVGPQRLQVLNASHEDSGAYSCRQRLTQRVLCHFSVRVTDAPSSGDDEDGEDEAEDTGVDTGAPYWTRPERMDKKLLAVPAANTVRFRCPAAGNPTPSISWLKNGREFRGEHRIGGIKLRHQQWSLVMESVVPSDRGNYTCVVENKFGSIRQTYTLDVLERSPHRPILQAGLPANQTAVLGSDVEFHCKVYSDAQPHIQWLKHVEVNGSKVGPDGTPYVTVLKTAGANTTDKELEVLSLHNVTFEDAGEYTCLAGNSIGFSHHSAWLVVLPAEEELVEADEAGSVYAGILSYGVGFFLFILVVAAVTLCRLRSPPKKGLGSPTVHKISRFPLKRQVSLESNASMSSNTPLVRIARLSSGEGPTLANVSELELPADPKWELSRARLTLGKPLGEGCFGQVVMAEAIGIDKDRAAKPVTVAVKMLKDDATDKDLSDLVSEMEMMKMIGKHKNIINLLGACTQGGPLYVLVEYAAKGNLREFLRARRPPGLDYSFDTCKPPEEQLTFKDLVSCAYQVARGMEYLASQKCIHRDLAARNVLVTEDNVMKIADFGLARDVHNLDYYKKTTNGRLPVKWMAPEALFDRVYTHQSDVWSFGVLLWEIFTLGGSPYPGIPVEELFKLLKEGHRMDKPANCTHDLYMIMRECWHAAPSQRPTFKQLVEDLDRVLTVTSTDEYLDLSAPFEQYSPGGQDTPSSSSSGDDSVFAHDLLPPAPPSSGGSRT

FLT1 (human) = FLT1 (human) (UniProt P17948)
Chain of FLT1 (human) (P17948 whole entry, looked up): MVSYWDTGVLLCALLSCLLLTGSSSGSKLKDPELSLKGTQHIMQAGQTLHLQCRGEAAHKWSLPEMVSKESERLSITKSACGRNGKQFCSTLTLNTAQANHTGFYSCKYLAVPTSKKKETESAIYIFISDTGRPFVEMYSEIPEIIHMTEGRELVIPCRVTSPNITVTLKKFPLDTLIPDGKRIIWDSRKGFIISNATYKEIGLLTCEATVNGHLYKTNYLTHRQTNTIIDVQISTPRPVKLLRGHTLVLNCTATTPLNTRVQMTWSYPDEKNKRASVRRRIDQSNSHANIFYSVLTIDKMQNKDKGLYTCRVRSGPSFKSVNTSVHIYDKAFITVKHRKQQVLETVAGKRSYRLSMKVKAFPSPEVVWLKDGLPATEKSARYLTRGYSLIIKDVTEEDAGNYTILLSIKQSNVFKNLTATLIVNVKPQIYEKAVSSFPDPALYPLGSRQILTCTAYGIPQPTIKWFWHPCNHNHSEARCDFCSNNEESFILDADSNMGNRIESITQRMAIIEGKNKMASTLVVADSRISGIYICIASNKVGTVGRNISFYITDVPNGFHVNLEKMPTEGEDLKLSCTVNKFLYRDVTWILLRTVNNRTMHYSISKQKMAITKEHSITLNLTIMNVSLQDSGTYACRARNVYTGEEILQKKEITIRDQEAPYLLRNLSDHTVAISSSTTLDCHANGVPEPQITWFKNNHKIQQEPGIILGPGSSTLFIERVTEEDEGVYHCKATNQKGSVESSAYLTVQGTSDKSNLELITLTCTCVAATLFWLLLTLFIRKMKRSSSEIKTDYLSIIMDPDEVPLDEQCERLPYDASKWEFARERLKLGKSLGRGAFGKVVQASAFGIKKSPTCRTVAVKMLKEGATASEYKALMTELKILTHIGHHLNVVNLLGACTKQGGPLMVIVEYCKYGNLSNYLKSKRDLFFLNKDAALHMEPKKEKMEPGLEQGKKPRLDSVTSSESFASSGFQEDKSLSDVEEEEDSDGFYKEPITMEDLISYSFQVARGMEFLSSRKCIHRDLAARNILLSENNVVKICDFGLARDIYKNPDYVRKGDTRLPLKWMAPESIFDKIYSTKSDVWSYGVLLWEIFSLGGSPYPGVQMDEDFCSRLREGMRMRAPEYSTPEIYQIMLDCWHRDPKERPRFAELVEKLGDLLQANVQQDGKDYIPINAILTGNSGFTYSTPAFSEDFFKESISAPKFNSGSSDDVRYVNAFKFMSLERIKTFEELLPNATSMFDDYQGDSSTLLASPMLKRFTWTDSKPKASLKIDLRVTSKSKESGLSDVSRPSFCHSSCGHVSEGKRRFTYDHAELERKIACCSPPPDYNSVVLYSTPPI

FLT4 (human) = FLT4 (human) (UniProt P35916)
FRK (human) = FRK (human) (UniProt P42685)
[1] = molecular target: JAK2 JH1 catalytic (human) (UniProt O60674)
MAP3K10 (human) = MAP3K10 (human) (UniProt Q02779)
MAP3K3 (human) = MAP3K3 (human) (UniProt Q99759)
MAP4K2 (human) = MAP4K2 (human) (UniProt Q12851)
MAP4K3 (human) = MAP4K3 (human) (UniProt Q8IVH8)
MAPK10 (human) = MAPK10 (human) (UniProt P53779)
Chain of MAPK10 (human) (P53779 whole entry, looked up): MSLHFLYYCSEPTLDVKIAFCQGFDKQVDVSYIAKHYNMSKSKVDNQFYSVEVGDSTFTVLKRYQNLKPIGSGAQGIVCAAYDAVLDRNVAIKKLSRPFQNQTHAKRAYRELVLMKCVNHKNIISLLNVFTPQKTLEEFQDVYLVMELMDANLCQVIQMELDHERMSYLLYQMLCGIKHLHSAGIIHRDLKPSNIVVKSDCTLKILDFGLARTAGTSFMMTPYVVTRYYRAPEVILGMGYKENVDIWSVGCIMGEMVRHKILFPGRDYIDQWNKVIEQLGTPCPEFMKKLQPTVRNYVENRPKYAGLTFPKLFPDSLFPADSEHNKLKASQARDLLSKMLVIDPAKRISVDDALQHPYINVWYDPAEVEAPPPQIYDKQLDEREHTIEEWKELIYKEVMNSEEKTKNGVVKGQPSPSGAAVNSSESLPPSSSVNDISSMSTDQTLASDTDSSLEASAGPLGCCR

MST1R (human) = MST1R (human) (UniProt Q04912)
MST4 (human) = MST4 (human) (UniProt Q9P289)
Chain of MST4 (human) (Q9P289 whole entry, looked up): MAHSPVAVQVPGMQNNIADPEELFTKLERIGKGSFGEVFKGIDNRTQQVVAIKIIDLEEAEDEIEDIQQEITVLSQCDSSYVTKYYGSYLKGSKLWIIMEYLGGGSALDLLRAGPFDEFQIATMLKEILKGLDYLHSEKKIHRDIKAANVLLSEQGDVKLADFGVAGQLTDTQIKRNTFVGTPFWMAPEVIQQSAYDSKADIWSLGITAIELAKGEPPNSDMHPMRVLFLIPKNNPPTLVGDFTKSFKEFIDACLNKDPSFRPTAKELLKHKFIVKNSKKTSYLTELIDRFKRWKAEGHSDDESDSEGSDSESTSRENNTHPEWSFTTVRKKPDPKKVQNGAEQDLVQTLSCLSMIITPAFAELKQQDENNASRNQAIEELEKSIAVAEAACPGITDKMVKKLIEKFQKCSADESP

NEK2 (human) = NEK2 (human) (UniProt P51955)
PIM2 (human) = PIM2 (human) (UniProt Q9P1W9)
PIP4K2B (human) = PIP4K2B (human) (UniProt P78356)
PKMYT1 (human) = PKMYT1 (human) (UniProt Q99640)
Chain of PKMYT1 (human) (Q99640 whole entry, looked up): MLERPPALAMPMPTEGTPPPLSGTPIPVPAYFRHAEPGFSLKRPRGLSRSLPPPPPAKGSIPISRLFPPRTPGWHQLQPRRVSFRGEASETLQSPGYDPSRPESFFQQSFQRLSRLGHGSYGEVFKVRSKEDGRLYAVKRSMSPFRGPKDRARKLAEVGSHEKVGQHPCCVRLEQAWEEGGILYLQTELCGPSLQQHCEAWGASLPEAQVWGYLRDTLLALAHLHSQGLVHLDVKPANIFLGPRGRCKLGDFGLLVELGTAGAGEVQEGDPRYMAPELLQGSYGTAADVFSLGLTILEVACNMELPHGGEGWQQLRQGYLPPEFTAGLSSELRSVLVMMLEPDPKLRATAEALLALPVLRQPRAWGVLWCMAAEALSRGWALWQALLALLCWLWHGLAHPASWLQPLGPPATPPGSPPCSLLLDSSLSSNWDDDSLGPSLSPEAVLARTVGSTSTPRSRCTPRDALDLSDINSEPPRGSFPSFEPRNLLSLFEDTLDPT

PLK1 (human) = PLK1 (human) (UniProt P53350)
PLK4 (human) = PLK4 (human) (UniProt O00444)
PRKAA2 (human) = PRKAA2 (human) (UniProt P54646)
PRKCE (human) = PRKCE (human) (UniProt Q02156)
RIOK2 (human) = RIOK2 (human) (UniProt Q9BVS4)
RPS6KA5 KD2 (human) = RPS6KA5 KD2 (human) (UniProt O75582)
Chain of RPS6KA5 KD2 (human) (O75582 whole entry, looked up): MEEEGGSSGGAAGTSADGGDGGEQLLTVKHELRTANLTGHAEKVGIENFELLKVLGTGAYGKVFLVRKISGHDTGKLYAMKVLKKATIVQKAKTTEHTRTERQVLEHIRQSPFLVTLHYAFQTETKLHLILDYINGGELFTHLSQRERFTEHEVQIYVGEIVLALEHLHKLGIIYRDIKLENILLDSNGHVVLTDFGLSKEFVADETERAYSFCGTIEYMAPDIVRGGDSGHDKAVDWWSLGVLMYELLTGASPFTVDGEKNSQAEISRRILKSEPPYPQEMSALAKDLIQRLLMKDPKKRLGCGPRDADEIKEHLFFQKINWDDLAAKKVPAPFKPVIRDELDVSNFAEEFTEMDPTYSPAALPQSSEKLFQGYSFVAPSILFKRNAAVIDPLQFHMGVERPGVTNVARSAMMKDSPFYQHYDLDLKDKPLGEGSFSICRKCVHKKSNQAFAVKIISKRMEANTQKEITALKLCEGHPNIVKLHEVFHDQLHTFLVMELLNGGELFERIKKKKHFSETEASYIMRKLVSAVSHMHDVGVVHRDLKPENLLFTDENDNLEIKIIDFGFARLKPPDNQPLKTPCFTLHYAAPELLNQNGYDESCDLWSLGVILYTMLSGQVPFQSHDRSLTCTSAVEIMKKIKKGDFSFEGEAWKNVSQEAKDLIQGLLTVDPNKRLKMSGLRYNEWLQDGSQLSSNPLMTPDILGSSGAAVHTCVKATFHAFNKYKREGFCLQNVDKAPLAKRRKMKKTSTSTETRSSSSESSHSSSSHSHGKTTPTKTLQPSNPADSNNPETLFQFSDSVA

RPS6KA6 KD2 (human) = RPS6KA6 KD2 (human) (UniProt Q9UK32)
STK17B (human) = STK17B (human) (UniProt O94768)
TGFBR1 (human) = TGFBR1 (human) (UniProt P36897)
TGFBR2 (human) = TGFBR2 (human) (UniProt P37173)
[2] = molecular target: TYK2 JH2 pseudokinase (human) (UniProt P29597)

CCC(=O)N1CCN(c2ccc(-n3c(=O)ccc4cnc5ccc(-c6cnc7ccccc7c6)cc5c43)cc2C(F)(F)F)CC1
kinase still bound, per cent of control (ABL2 (human)): 99%
kinase still bound, per cent of control (ACVRL1 (human)): 83%
kinase still bound, per cent of control (AKT1 (human)): 91%
kinase still bound, per cent of control (AKT3 (human)): 77%
kinase still bound, per cent of control (BMPR1A (human)): 100%
kinase still bound, per cent of control (CAMK2B (human)): 100%
kinase still bound, per cent of control (CDK7 (human)): 57%
kinase still bound, per cent of control (CHEK2 (human)): 100%
kinase still bound, per cent of control (CLK4 (human)): 49%
kinase still bound, per cent of control (DYRK1B (human)): 87%
kinase still bound, per cent of control (EPHA4 (human)): 90%
kinase still bound, per cent of control (FGFR1 (human)): 96%
kinase still bound, per cent of control (FGFR2 (human)): 55%
kinase still bound, per cent of control (FGFR3 (human)): 42%
kinase still bound, per cent of control (FLT1 (human)): 79%
kinase still bound, per cent of control (FLT4 (human)): 74%
kinase still bound, per cent of control (FRK (human)): 60%
kinase still bound, per cent of control [1]: 65%
kinase still bound, per cent of control (MAP3K10 (human)): 99%
kinase still bound, per cent of control (MAP3K3 (human)): 75%
kinase still bound, per cent of control (MAP4K2 (human)): 35%
kinase still bound, per cent of control (MAP4K3 (human)): 1.9%
kinase still bound, per cent of control (MAPK10 (human)): 31%
kinase still bound, per cent of control (MST1R (human)): 55%
kinase still bound, per cent of control (MST4 (human)): 89%
kinase still bound, per cent of control (NEK2 (human)): 90%
kinase still bound, per cent of control (PIM2 (human)): 62%
kinase still bound, per cent of control (PIP4K2B (human)): 100%
kinase still bound, per cent of control (PKMYT1 (human)): 52%
kinase still bound, per cent of control (PLK1 (human)): 85%
kinase still bound, per cent of control (PLK4 (human)): 100%
kinase still bound, per cent of control (PRKAA2 (human)): 74%
kinase still bound, per cent of control (PRKCE (human)): 86%
kinase still bound, per cent of control (RIOK2 (human)): 24%
kinase still bound, per cent of control (RPS6KA5 KD2 (human)): 100%
kinase still bound, per cent of control (RPS6KA6 KD2 (human)): 86%
kinase still bound, per cent of control (STK17B (human)): 67%
kinase still bound, per cent of control (TGFBR1 (human)): 70%
kinase still bound, per cent of control (TGFBR2 (human)): 77%
kinase still bound, per cent of control [2]: 55%

O=C(NC1CC1)c1cccc(-c2ccc3c(NC(=O)C4CC4)n[nH]c3c2)c1
kinase still bound, per cent of control (ABL2 (human)): 100%
kinase still bound, per cent of control (ACVRL1 (human)): 100%
kinase still bound, per cent of control (AKT1 (human)): 100%
kinase still bound, per cent of control (AKT3 (human)): 100%
kinase still bound, per cent of control (BMPR1A (human)): 76%
kinase still bound, per cent of control (CAMK2B (human)): 84%
kinase still bound, per cent of control (CDK7 (human)): 18%
kinase still bound, per cent of control (CHEK2 (human)): 100%
kinase still bound, per cent of control (CLK4 (human)): 100%
kinase still bound, per cent of control (DYRK1B (human)): 89%
kinase still bound, per cent of control (EPHA4 (human)): 100%
kinase still bound, per cent of control (FGFR1 (human)): 100%
kinase still bound, per cent of control (FGFR2 (human)): 100%
kinase still bound, per cent of control (FGFR3 (human)): 100%
kinase still bound, per cent of control (FLT1 (human)): 100%
kinase still bound, per cent of control (FLT4 (human)): 100%
kinase still bound, per cent of control (FRK (human)): 89%
kinase still bound, per cent of control [1]: 18%
kinase still bound, per cent of control (MAP3K10 (human)): 95%
kinase still bound, per cent of control (MAP3K3 (human)): 85%
kinase still bound, per cent of control (MAP4K2 (human)): 99%
kinase still bound, per cent of control (MAP4K3 (human)): 60%
kinase still bound, per cent of control (MAPK10 (human)): 61%
kinase still bound, per cent of control (MST1R (human)): 90%
kinase still bound, per cent of control (MST4 (human)): 94%
kinase still bound, per cent of control (NEK2 (human)): 80%
kinase still bound, per cent of control (PIM2 (human)): 100%
kinase still bound, per cent of control (PIP4K2B (human)): 5.6%
kinase still bound, per cent of control (PKMYT1 (human)): 77%
kinase still bound, per cent of control (PLK1 (human)): 78%
kinase still bound, per cent of control (PLK4 (human)): 13%
kinase still bound, per cent of control (PRKAA2 (human)): 45%
kinase still bound, per cent of control (PRKCE (human)): 100%
kinase still bound, per cent of control (RIOK2 (human)): 78%
kinase still bound, per cent of control (RPS6KA5 KD2 (human)): 100%
kinase still bound, per cent of control (RPS6KA6 KD2 (human)): 60%
kinase still bound, per cent of control (STK17B (human)): 100%
kinase still bound, per cent of control (TGFBR1 (human)): 77%
kinase still bound, per cent of control (TGFBR2 (human)): 100%
kinase still bound, per cent of control [2]: 32%

CN(C)C/C=C/C(=O)Nc1cccc(Nc2ncc3c(n2)N(C)c2ccccc2C(=O)N3C)c1
kinase still bound, per cent of control (ABL2 (human)): 1.4%
kinase still bound, per cent of control (ACVRL1 (human)): 100%
kinase still bound, per cent of control (AKT1 (human)): 100%
kinase still bound, per cent of control (AKT3 (human)): 100%
kinase still bound, per cent of control (BMPR1A (human)): 0.65%
kinase still bound, per cent of control (CAMK2B (human)): 40%
kinase still bound, per cent of control (CDK7 (human)): 9.6%
kinase still bound, per cent of control (CHEK2 (human)): 94%
kinase still bound, per cent of control (CLK4 (human)): 100%
kinase still bound, per cent of control (DYRK1B (human)): 100%
kinase still bound, per cent of control (EPHA4 (human)): 79%
kinase still bound, per cent of control (FGFR1 (human)): 3.5%
kinase still bound, per cent of control (FGFR2 (human)): 13%
kinase still bound, per cent of control (FGFR3 (human)): 12%
kinase still bound, per cent of control (FLT1 (human)): 83%
kinase still bound, per cent of control (FLT4 (human)): 100%
kinase still bound, per cent of control (FRK (human)): 18%
kinase still bound, per cent of control [1]: 0.75%
kinase still bound, per cent of control (MAP3K10 (human)): 89%
kinase still bound, per cent of control (MAP3K3 (human)): 0.1%
kinase still bound, per cent of control (MAP4K2 (human)): 13%
kinase still bound, per cent of control (MAP4K3 (human)): 28%
kinase still bound, per cent of control (MAPK10 (human)): 80%
kinase still bound, per cent of control (MST1R (human)): 93%
kinase still bound, per cent of control (MST4 (human)): 31%
kinase still bound, per cent of control (NEK2 (human)): 62%
kinase still bound, per cent of control (PIM2 (human)): 100%
kinase still bound, per cent of control (PIP4K2B (human)): 36%
kinase still bound, per cent of control (PKMYT1 (human)): 100%
kinase still bound, per cent of control (PLK1 (human)): 22%
kinase still bound, per cent of control (PLK4 (human)): 0%
kinase still bound, per cent of control (PRKAA2 (human)): 1.4%
kinase still bound, per cent of control (PRKCE (human)): 67%
kinase still bound, per cent of control (RIOK2 (human)): 79%
kinase still bound, per cent of control (RPS6KA5 KD2 (human)): 80%
kinase still bound, per cent of control (RPS6KA6 KD2 (human)): 0.6%
kinase still bound, per cent of control (STK17B (human)): 100%
kinase still bound, per cent of control (TGFBR1 (human)): 25%
kinase still bound, per cent of control (TGFBR2 (human)): 55%
kinase still bound, per cent of control [2]: 18%
